Measurements from PMC4410475, “Discovery and anti-cancer evaluation of two novel non-ATP-competitive FGFR1 inhibitors in non-small-cell lung cancer” (BMC Cancer, 2015).

Legend:
Format in all cases: biochemical
FGFR1 [1] = target: T1, FGFR1 (Homo sapiens, UniProt P11362); test: Caliper mobility shift kinase assay with recombinant FGFR1, ATP at Km ([…])
FGFR3 = FGFR3 (Homo sapiens, UniProt P22607); test: cell-free kinase assay (authors' own, called previous); details: cited from earlier work
FGFR1 [2] = target: T1, FGFR1; test: Caliper mobility shift kinase assay with recombinant FGFR1, also at varied ATP concentrations

T1 sequence (P11362 22-822): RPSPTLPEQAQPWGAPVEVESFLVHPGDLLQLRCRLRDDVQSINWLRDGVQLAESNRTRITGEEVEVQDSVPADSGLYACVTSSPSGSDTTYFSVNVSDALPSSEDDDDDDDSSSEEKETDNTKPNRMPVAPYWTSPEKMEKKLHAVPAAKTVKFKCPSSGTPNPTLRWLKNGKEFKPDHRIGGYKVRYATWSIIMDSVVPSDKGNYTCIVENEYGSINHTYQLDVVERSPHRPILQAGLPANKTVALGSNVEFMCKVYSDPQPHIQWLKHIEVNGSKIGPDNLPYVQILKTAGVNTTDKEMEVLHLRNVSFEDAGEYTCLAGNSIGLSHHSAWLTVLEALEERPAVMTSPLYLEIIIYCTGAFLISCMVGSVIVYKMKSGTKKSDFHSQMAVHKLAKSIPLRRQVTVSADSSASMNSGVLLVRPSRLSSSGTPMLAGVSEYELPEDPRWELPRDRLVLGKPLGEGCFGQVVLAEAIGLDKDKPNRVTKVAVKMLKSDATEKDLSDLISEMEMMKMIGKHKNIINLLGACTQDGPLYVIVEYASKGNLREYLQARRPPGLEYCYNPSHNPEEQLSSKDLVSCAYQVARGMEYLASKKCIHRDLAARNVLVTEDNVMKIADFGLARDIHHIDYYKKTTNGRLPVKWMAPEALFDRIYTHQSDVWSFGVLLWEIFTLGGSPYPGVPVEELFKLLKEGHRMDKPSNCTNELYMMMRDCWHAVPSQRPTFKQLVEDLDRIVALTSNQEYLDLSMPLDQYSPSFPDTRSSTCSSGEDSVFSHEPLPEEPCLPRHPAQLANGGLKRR
Chain of FGFR3 (P22607 23-806): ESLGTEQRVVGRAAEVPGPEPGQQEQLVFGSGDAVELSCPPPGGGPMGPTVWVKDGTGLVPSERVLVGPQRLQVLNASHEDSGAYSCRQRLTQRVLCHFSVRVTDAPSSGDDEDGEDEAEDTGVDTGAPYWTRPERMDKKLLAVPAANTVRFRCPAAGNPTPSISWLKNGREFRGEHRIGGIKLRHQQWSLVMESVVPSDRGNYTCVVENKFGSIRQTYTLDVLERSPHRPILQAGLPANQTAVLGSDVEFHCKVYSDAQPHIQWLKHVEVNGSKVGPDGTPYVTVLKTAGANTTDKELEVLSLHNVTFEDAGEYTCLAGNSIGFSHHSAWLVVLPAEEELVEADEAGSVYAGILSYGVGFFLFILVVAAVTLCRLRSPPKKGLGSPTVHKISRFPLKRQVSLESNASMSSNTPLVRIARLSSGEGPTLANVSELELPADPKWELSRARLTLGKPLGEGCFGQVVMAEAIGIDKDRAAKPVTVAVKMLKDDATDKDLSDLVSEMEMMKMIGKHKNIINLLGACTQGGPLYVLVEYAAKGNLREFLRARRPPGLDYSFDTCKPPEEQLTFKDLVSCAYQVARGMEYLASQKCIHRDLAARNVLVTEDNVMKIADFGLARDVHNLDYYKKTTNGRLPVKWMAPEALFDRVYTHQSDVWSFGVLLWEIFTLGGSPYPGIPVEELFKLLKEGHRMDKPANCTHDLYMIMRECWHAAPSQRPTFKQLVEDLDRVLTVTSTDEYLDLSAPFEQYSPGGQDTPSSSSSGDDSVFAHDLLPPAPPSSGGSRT

Row | SMILES | IC50 (FGFR1 [1]) [µM] | IC50 (FGFR3) [µM] | IC50 (FGFR1 [2]) [µM]
1 | O=C1/C(=C/c2ccc(O)c(O)c2)CSC/C1=C\c1ccc(O)c(O)c1 [Ad23, 3,5-bis(3,4-dihydroxybenzylidene)-tetrahydrothiopyran-4-one] | 0.6 | – | –
2 | O=C1/C(=C/c2ccc(O)c(O)c2)COC/C1=C\c1ccc(O)c(O)c1 [Af23, 3,5-bis(3,4-dihydroxybenzylidene)-tetrahydropyran-4-one] | 1.4 | – | –
3 | CC(Cc1ccc(O)c(O)c1)C(C)Cc1ccc(O)c(O)c1 (stereo not shown) [NDGA, nordihydroguaiaretic acid] | – | 72.4 | 24.5
